Measured values reported in patent US11780826B2 (Amgen Inc., priority 2017, dated 2023).

System: Bovine cardiac myofibrils
Experiment: In vitro model of dose-dependent myofibril ATPase modulation (AC1.4, pyruvate kinase/lactate dehydrogenase-coupled ATPase assay at pCa25)
Format: biochemical
Conditions: concentration at which ATPase activity was 1.4-fold higher than the bottom of the dose curve, mean of a minimum of two independent tests
Procedure, shortened: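 Compound dilutions were premixed with myofibrils, coupling enzymes, EGTA and CaCl2, then the reaction was started with an equal volume carrying ATP (final 1 mM), NADH and PEP. ATP turnover was followed at 340 nm, and dose responses were fit to a four-parameter equation.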

AC1.4 [µM]	Structure (SMILES)
8.7795	N#CC1CN(S(=O)(=O)N2CCC[C@H](C(=O)N3CCC[C@@H]3C(=O)NCCc3ccc(C(F)(F)F)cc3)C2)C1 [Example 811, 1-(((3S)-1-((3-cyano-1-azetidinyl)sulfonyl)-3-piperidinyl)carbonyl)-N-(2-(4-(trifluoromethyl)phenyl)ethyl)-D-prolinamide]
8.31	COC(=O)[C@H]1C[C@H](S(=O)(=O)N2CCC[C@H](C(=O)N3CCC[C@@H]3C(=O)NCc3ccc(C(F)(F)F)cc3)C2)C1 [Example 775, methyltrans-3-(((3S)-3-(((2R)-2-((4-(trifluoromethyl)benzyl)carbamoyl)-1-pyrrolidinyl)carbonyl)-1-piperidinyl)sulfonyl)cyclobutanecarboxylate]
1.4045	O=C(NCc1ccc(C(F)(F)F)cc1)[C@H]1CCCN1C(=O)[C@H]1CCCN(S(=O)(=O)N2CC(c3cccc(Cl)c3)C2)C1 [Example 398, 1-(((3S)-1-((3-(3-chlorophenyl)-1-azetidinyl)sulfonyl)-3-piperidinyl)carbonyl)-N-(4-(trifluoromethyl)benzyl)-D-prolinamide]
8.6395	CC(=O)NC1CN(S(=O)(=O)N2CCC[C@H](C(=O)N3CCC[C@@H]3C(=O)NCc3ccc(C(F)(F)F)cc3)C2)C1 [Example 782, 1-(((3S)-1-((3-(acetylamino)-1-azetidinyl)sulfonyl)-3-piperidinyl)carbonyl)-N-(4-(trifluoromethyl)benzyl)-D-prolinamide]
4.7065	Cc1ccc(S(C)(=O)=O)cc1C(=O)N1CCC[C@@H]1C(=O)N[C@@H](c1ccc(C(F)(F)F)cc1F)C1CC1 [Example 666, N-((R)-cyclopropyl(2-fluoro-4-(trifluoromethyl)phenyl)methyl)-1-(2-methyl-5-(methylsulfonyl)benzoyl)-D-prolinamide]
1.5805	O=C(NCc1ccc(C(F)(F)F)cc1)[C@H]1CCCN1C(=O)[C@H]1CCCN(S(=O)(=O)N2CC(Oc3ccc(Cl)cc3)C2)C1 [Example 424, 1-(((3S)-1-((3-(4-chlorophenoxy)-1-azetidinyl)sulfonyl)-3-piperidinyl)carbonyl)-N-(4-(trifluoromethyl)benzyl)-D-prolinamide]
0.3361	N#CC1CN(S(=O)(=O)N2CCCC(F)(C(=O)N3CCC[C@@H]3C(=O)NCc3ccc(C(F)(F)F)cc3)C2)C1 (stereo partly drawn) [Example 183, 1-((-1-((3-cyano-1-azetidinyl)sulfonyl)-3-fluoro-3-piperidinyl)carbonyl)-N-(4-(trifluoromethyl)benzyl)-D-prolinamide]
2.3995	CCC1(O)CN(S(=O)(=O)N2CCC[C@H](C(=O)N3CCC[C@@H]3C(=O)NCc3ccc(C(F)(F)F)cc3F)C2)C1 [Example 509, 1-(((3S)-1-((3-ethyl-3-hydroxy-1-azetidinyl)sulfonyl)-3-piperidinyl)carbonyl)-N-(2-fluoro-4-(trifluoromethyl)benzyl)-D-prolinamide]
0.2235	N#CC1CN(S(=O)(=O)c2cccc(C(=O)N3CCC[C@@H]3C(=O)NCc3cnc(C(F)(F)F)nc3)c2)C1 [Example 136, 1-((3-((3-cyano-1-azetidinyl)sulfonyl)phenyl)carbonyl)-N-((2-(trifluoromethyl)-5-pyrimidinyl)methyl)-D-prolinamide]
3.94	N#CC1CC(S(=O)(=O)c2cccc(C(=O)N3CCCC[C@@H]3C(=O)NCc3ccc(Cl)nc3)c2)C1 (stereo partly drawn) [Example 620, (2R)-N-((6-chloro-3-pyridinyl)methyl)-1-((3-((cis-3-cyanocyclobutyl)sulfonyl)phenyl)carbonyl)-2-piperidinecarboxamide,(2R)-N-((6-chloro-3-pyridinyl)methyl)-1-((3-((trans-3-cyanocyclobutyl)sulfonyl)phenyl)carbonyl)-2-piperidinecarboxamide]
0.09025	CS(=O)(=O)C1CN(S(=O)(=O)N2CCC[C@H](C(=O)N3CCC[C@@H]3C(=O)NCc3ccc(C(F)(F)F)cc3)C2)C1 [Example 72, 1-(((3S)-1-((3-(methylsulfonyl)-1-azetidinyl)sulfonyl)-3-piperidinyl)carbonyl)-N-(4-(trifluoromethyl)benzyl)-D-prolinamide]
3.364	N#CC1CN(S(=O)(=O)N2CCC[C@H](C(=O)N3C[C@@H](O)C[C@@H]3C(=O)NCc3ccc(C(F)(F)F)cc3)C2)C1 [Example 581, (4S)-1-(((3S)-1-((3-cyano-1-azetidinyl)sulfonyl)-3-piperidinyl)carbonyl)-4-hydroxy-N-(4-(trifluoromethyl)benzyl)-D-prolinamide]
0.2062	N#CC1CN(S(=O)(=O)c2cccc(C(=O)N3C[C@H](O)C[C@@H]3C(=O)NCc3ccc(C(F)(F)F)cc3)c2)C1 [Example 126, (4R)-1-((3-((3-cyano-1-azetidinyl)sulfonyl)phenyl)carbonyl)-4-hydroxy-N-(4-(trifluoromethyl)benzyl)-D-prolinamide]
0.03765	N#CC1CN(S(=O)(=O)N2CCC[C@H](C(=O)N3CCC[C@@H]3C(=O)N[C@H](CCO)c3ccc(C(F)(F)F)cc3)C2)C1 [Example 36, 1-(((3S)-1-((3-cyano-1-azetidinyl)sulfonyl)-3-piperidinyl)carbonyl)-N-((1R)-3-hydroxy-1-(4-(trifluoromethyl)phenyl)propyl)-D-prolinamide]
2.873	O=C(N[C@@H](c1ccc(C(F)(F)F)cc1F)C1CC1)[C@H]1C[C@H]2C[C@H]2N1C(=O)c1ccccc1NC(=O)C(F)(F)F [Example 553, (1R,3R,5R)-N-((R)-cyclopropyl(2-fluoro-4-(trifluoromethyl)phenyl)methyl)-2-(2-(2,2,2-trifluoroacetamido)benzoyl)-2-azabicyclo[3.1.0]hexane-3-carboxamide]
7.42	CS(=O)(=O)c1cccc(C(=O)N2[C@@H](C(=O)N[C@@H]3CCc4cc(Cl)ccc43)C[C@H]3C[C@H]32)c1 [Example 753, (1R,3R,5R)-N-((1R)-5-chloro-2,3-dihydro-1H-inden-1-yl)-2-(3-(methylsulfonyl)benzoyl)-2-azabicyclo[3.1.0]hexane-3-carboxamide]
0.7331	N#CC1CN(S(=O)(=O)N2CCC[C@H](C(=O)N3CCC[C@@H]3C(=O)NCc3ccc(F)cc3Cl)C2)C1 [Example 284, N-(2-chloro-4-fluorobenzyl)-1-(((3S)-1-((3-cyano-1-azetidinyl)sulfonyl)-3-piperidinyl)carbonyl)-D-prolinamide]
0.1712	N#CC1CN(S(=O)(=O)N2CCC[C@H](C(=O)N3CCOC[C@@H]3C(=O)NCc3ccc(C(F)(F)F)cc3)C2)C1 [Example 109, (3R)-4-(((3S)-1-((3-cyano-1-azetidinyl)sulfonyl)-3-piperidinyl)carbonyl)-N-(4-(trifluoromethyl)benzyl)-3-morpholinecarboxamide]
0.1484	N#CC1CN(S(=O)(=O)N2CCC[C@H](C(=O)N3CCC[C@@H]3C(=O)NCc3ccc(Cl)cc3Cl)C2)C1 [Example 99, 1-(((3S)-1-((3-cyano-1-azetidinyl)sulfonyl)-3-piperidinyl)carbonyl)-N-(2,4-dichlorobenzyl)-D-prolinamide]
3.975	N#CC1CN(S(=O)(=O)N2CCC[C@H](C(=O)N3CCC[C@@H]3C(=O)NCc3c(F)c(F)cc(F)c3F)C2)C1 [Example 623, 1-(((3S)-1-((3-cyano-1-azetidinyl)sulfonyl)-3-piperidinyl)carbonyl)-N-(2,3,5,6-tetrafluorobenzyl)-D-prolinamide]
2.291	N#CC1CN(S(=O)(=O)N2CCC[C@H](C(=O)N3CCC[C@@H]3C(=O)NCc3cccc(F)c3)C2)C1 [Example 496, 1-(((3S)-1-((3-cyano-1-azetidinyl)sulfonyl)-3-piperidinyl)carbonyl)-N-(3-fluorobenzyl)-D-prolinamide]
3.9478	Cc1cc(C(=O)N2[C@@H](C(=O)N[C@@H](c3cc(F)c(Cl)cc3F)C3COC3)C[C@H]3C[C@H]32)ccn1 [Example 621, (1R,3R,5R)-N-((R)-(4-chloro-2,5-difluorophenyl)(3-oxetanyl)methyl)-2-((2-methyl-4-pyridinyl)carbonyl)-2-azabicyclo[3.1.0]hexane-3-carboxamide]
2.4195	C[C@@H](NC(=O)[C@H]1CCCN1C(=O)[C@@H]1CN(S(=O)(=O)N2CC(C#N)C2)CCN1)c1ccc(Cl)cc1 [Example 511, N-((1R)-1-(4-chlorophenyl)ethyl)-1-(((2S)-4-((3-cyano-1-azetidinyl)sulfonyl)-2-piperazinyl)carbonyl)-D-prolinamide]
1.612	CS(=O)(=O)c1ccc(F)c(C(=O)N2CCC[C@@H]2C(=O)N[C@@H](c2ccc(C(F)(F)F)cc2F)C2CC2)c1 [Example 464, N-((R)-cyclopropyl(2-fluoro-4-(trifluoromethyl)phenyl)methyl)-1-(2-fluoro-5-(methylsulfonyl)benzoyl)-D-prolinamide]
9.4535	N#CC1CN(S(=O)(=O)N2CCC[C@H](C(=O)N3CCC[C@@H]3C(=O)NC3CCC3C(F)(F)F)C2)C1 (stereo partly drawn) [Example 799, (2R)-1-((S)-1-((3-cyanoazetidin-1-yl)sulfonyl)piperidine-3-carbonyl)-N-(2-(trifluoromethyl)cyclobutyl)pyrrolidine-2-carboxamide]
1.1795	O=C(N[C@@H](c1ccc(C(F)(F)F)cc1F)C1CC1)[C@H]1CCCN1C(=O)c1cccc(C2CC2)c1 [Example 369, 1-(3-cyclopropylbenzoyl)-N-((R)-cyclopropyl(2-fluoro-4-(trifluoromethyl)phenyl)methyl)-D-prolinamide]

Structure (SMILES)	AC1.4 [µM]
CN1CC(C(NC(=O)[C@H]2C[C@H]3C[C@H]3N2C(=O)c2cccc(S(C)(=O)=O)c2)c2ccc(C(F)(F)F)cc2F)CC1=O (stereo partly drawn) [Example 575, (1R,3R,5R)-N-((2-fluoro-4-(trifluoromethyl)phenyl)(1-methyl-5-oxopyrrolidin-3-yl)methyl)-2-(3-(methylsulfonyl)benzoyl)-2-azabicyclo[3.1.0]hexane-3-carboxamrde]	3.245
